Patent US8476233B2, “Methods for treatment for ulcerative colitis in mammals” (Therapeutic Research, LLC, priority 2003, dated 2013)
Where two headings read alike, the source gives them in different places.

Columns and labels:
[1] = system: glutathione peroxidase (GPx); settings: cited from earlier work
colonic mucosa = settings: rats, 3% solution, cited from earlier work
ulcerative colitis = test: Example 3: patient's response to earlier therapies; assay type: in vivo, human; settings: patient history before the treatment of the invention
Source text: The recurrences occurred every 3-5 months.

[2] = system: mitochondrial electron transport chain (whole chain respiration); settings: same study as cigarette tar; cited from earlier work

N[C@@H](CCS)C(=O)O [Homocysteine, homocysteine]
inhibition of glutathione peroxidase (GPx) activity ([1]; Outinen et al., 1999): 10 fold | concentration of free homocysteine at which inhibition of GPx occurs ([1]; physiologic concentration, Chen, 2000): 9 µmol/L

OO [hydrogen peroxide]
extent of mucosal inflammation above the anus (colonic mucosa; 5 hours after injection): 5 cm | extent of mucosal inflammation above the anus (colonic mucosa; by one week): 9 cm | colonic outcome of rectal injection (colonic mucosa; rectal injection): acute and chronic ulcerative colitis

C[C@]12C=CC(=O)C=C1CC[C@@H]1[C@@H]2C(=O)C[C@@]2(C)[C@H]1CC[C@]2(O)C(=O)CO [prednisone]
clinical response of ulcerative colitis episodes to earlier therapy (ulcerative colitis): improved for a few months

CN1CCCC1c1cccnc1 (stereo not shown) [nicotine]
effect on electron transport activity [2]: no effect
